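Results reflect a 48-hour exposure of cells in 96-well plates to compound at five concentrations. Abbreviation: GI50, concentration required for 50% inhibition of growth. Definition used: TGI = concentration required for complete inhibition of growth.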
What was measured:
Test in all cases: NCI-60 cell line screen, 48 h
786-0 renal = system: 786-0 renal
A498 renal = system: A498 renal
HCC-2998 colon = system: HCC-2998 colon
HCT-15 colon = system: HCT-15 colon
LOX IMVI melanoma = system: LOX IMVI melanoma
M14 melanoma = system: M14 melanoma
MALME-3M melanoma = system: MALME-3M melanoma
NCI-H226 lung = system: NCI-H226 lung
OVCAR-5 ovarian = system: OVCAR-5 ovarian
TK-10 renal = system: TK-10 renal

Compound	GI50 (786-0 renal)	TGI (786-0 renal)	GI50 (A498 renal)	TGI (A498 renal)	GI50 (HCC-2998 colon)	TGI (HCC-2998 colon)	GI50 (HCT-15 colon)	TGI (HCT-15 colon)	GI50 (LOX IMVI melanoma)	TGI (LOX IMVI melanoma)	GI50 (M14 melanoma)	TGI (M14 melanoma)	GI50 (MALME-3M melanoma)	TGI (MALME-3M melanoma)	GI50 (NCI-H226 lung)	TGI (NCI-H226 lung)	GI50 (OVCAR-5 ovarian)	TGI (OVCAR-5 ovarian)	GI50 (TK-10 renal)	TGI (TK-10 renal)
O=C(Nc1ccc(F)cc1)Nc1ccc(Br)c(C(F)(F)F)c1	2420 nM	8.17 µM	1920 nM	5.15 µM	2380 nM	7.73 µM	2350 nM	10.8 µM	2510 nM	7.39 µM	2290 nM	7.41 µM	2120 nM	5.8 µM	2730 nM	11.1 µM	2550 nM	10.8 µM	2330 nM	7.43 µM
O=C(c1ccco1)c1c(C(F)(F)F)n([O-])c2cc(C(F)(F)F)ccc2[n+]1=O	479 nM	0.998 µM	1530 nM	3.28 µM	371 nM	0.862 µM	404 nM	0.842 µM	299 nM	0.73 µM	1620 nM	3.05 µM	1490 nM	3.43 µM	1770 nM	3.58 µM	1860 nM	3.39 µM	1570 nM	3.1 µM
C#CC1(O)CCC2[C@@H]3CCc4cc(Oc5nc(F)nc(-c6c7ccccc7c(SCC)n6CCC)n5)ccc4C3CC[C@@]21C (some centres not stated)		> 100 µM		> 100 µM		> 100 µM		> 100 µM		> 100 µM		> 100 µM		> 100 µM		50.1 µM		> 100 µM		> 100 µM
COc1ccc(NC(=O)c2sc3nc(C)c(C(=O)/C=C/c4cccc(OC)c4)cc3c2N)cc1	856 nM	1.85 µM	1080 nM	3.22 µM	1520 nM	5.32 µM	1010 nM	2.42 µM	906 nM	1.71 µM	1780 nM	18.7 µM	3850 nM	45 µM	1890 nM	10.3 µM	1620 nM	9 µM	1910 nM	15.3 µM
CC(=O)OC12c3ccccc3-c3ccccc3C1C(C(=O)O)C2C(=O)O (configuration not stated)		> 10 µM		> 10 µM		> 10 µM		> 10 µM		> 10 µM		> 10 µM		3.09 µM		> 10 µM		> 10 µM		> 10 µM
C[C@]12CC[C@H]3[C@@H](CC4SC(N)=NC45C/C(=N/NC(N)=O)CC[C@]35C)[C@@H]1CCC2=O (some centres not stated)	1390 nM	2.82 µM	2100 nM	6.83 µM	1740 nM	3.28 µM	1460 nM	2.86 µM	1710 nM	3.12 µM	1940 nM	3.77 µM	1760 nM	3.49 µM	2090 nM	4.91 µM	1710 nM	3.19 µM	2290 nM	5.45 µM
O=C(Nc1ccccc1-c1nn(CN2CCNCC2)c(=S)n(CN2CCNCC2)c1=O)C(F)(F)F		35.1 µM		35.3 µM		33.4 µM		31.6 µM		36.5 µM		31.1 µM		32.9 µM		40.7 µM		45 µM		61.1 µM
CCOC(=O)C1=C(C)N(NC(N)=O)C2(N)N(NC(N)=O)C(C)=C(C(=O)OCC)C12C(=O)OCC (configuration not stated)		> 100 µM		> 100 µM		> 100 µM		> 100 µM		> 100 µM		> 100 µM		> 100 µM		> 100 µM		> 100 µM		
COc1cc(C(C)c2cc3c(cc2OCCNC(=O)COc2cc4c(cc2C(C)c2cc(OC)c(OC)c(OC)c2)OCO4)OCO3)cc(OC)c1OC (configuration not stated)		> 100 µM		> 100 µM		> 100 µM		> 100 µM		> 100 µM		> 100 µM		> 100 µM		> 100 µM		> 100 µM		> 100 µM
C/C(CC(=O)Nc1ccccc1C)=N/NS(=O)(=O)c1ccc(C)cc1		> 100 µM		> 100 µM		> 100 µM				> 100 µM		> 100 µM		> 100 µM		> 100 µM		> 100 µM		> 100 µM
Cc1cc(C)c(C(=O)O)c(SSc2cc(C)cc(C)c2C(=O)O)c1		> 100 µM		> 100 µM						> 100 µM				> 100 µM		> 100 µM		> 100 µM		> 100 µM
O=c1oc2cc(OC/C(=N/O)c3ccc(F)cc3)ccc2c2ccccc12	11700 nM	25 µM	22000 nM	37.7 µM	17000 nM	30.7 µM	20700 nM	42.4 µM			19200 nM	33.7 µM	19600 nM	42.8 µM	22300 nM	40.6 µM	19400 nM	40 µM	27000 nM	81.2 µM
COc1cc(NS(C)(=O)=O)ccc1NCc1c2ccccc2nc2ccccc12		> 100 µM				> 100 µM		> 100 µM		91.1 µM		> 100 µM		> 100 µM		> 100 µM		> 100 µM		> 100 µM
COc1ccc2oc(-c3ccc(OC)c(OC)c3OC)cc(=O)c2c1		> 100 µM				> 100 µM				> 100 µM		> 100 µM		> 100 µM		81.1 µM		> 100 µM		> 100 µM
Cc1nc(N)nc(N)c1CCCc1ccccc1		> 100 µM				39.2 µM		> 100 µM		> 100 µM		64.2 µM		95.7 µM		> 100 µM		> 100 µM		> 100 µM
COc1ccc(/C=C2\SC(=Nc3ccccc3)NC2=O)cc1	8250 nM	30.1 µM	1080 nM	7.34 µM	10000 nM	> 100 µM	2730 nM	> 100 µM	5500 nM	19.6 µM			19000 nM	99.8 µM	13800 nM	> 100 µM	12500 nM	> 100 µM	41400 nM	> 100 µM
CN(C)CCCC1(c2ccc(F)cc2)OCc2cc(-c3cc4ccccc4s3)ccc21 (configuration not stated)	1760 nM	3.37 µM	1530 nM	2.92 µM	1670 nM	3.11 µM	1690 nM	3.13 µM	1640 nM	3.13 µM	1590 nM	3.13 µM	1540 nM	2.98 µM			1580 nM	2.92 µM	1700 nM	3.13 µM
COc1ccc2c(c1)NC1(O)c3ccccc3C(=O)C21O (configuration not stated)		> 100 µM		> 100 µM						> 100 µM		> 100 µM		> 100 µM		> 100 µM				> 100 µM

Reference: PubChem BioAssay (NCI)
